# According to patent US20260027104A1, “NOVEL NAPHTHYL AND ISOQUINOLINE SULFONAMIDE DERIVATIVES” (Hoffmann-La Roche Inc., priority 2022, published 2026):
# Biological target: human GPR17 short isoform (Homo sapiens, UniProt Q13304)
# Test: hGPR17 cAMP assay (GPR17 cAMP Assay Protocol, antagonist mode)
# Format: cell-based
# Conditions: CHO-K1 cells stably expressing untagged human GPR17 short isoform; EC80 of agonist MDL29,951; forskolin 15 μM; 30 min, room temperature; TR-FRET cAMP readout
# Procedure: GPR17 cAMP Assay Protocol:
# CHO-K1 cells stably expressing vector containing untagged human GPR17 short isoform (Roche) were cultured at 37° C./5% CO2 in DMEM (Dulbecco's Modified Eagle Medium):F-12 (1:1) supplemented with 10% foetal bovine serum and 400 μg/ml Geneticin.
# Changes in intracellular cyclic adenosine monophosphate (cAMP) levels were quantified using the Nano-TRF Detection Assay kit (Roche Diagnostics, Cat. No. 05214386001). This assay allows for direct cAMP quantification in a homogeneous solution. cAMP is detected based on time-resolved fluorescence energy transfer (TR-FRET) and competitive binding of ruthenylated cAMP and endogenous cAMP to an anti-cAMP monoclonal antibody labeled with AlexaFluor-700. The Ruthenium complex serves as the FRET donor and transfers energy to AlexaFluor-700. The FRET signal is inversely proportional to the cAMP concentration.
# CHO-GPR17S cells were detached with Accutase and resuspended in assay buffer consisting of Hank's Balanced Salt Solution (HBSS), 10 mM HEPES (4-(2-hydroxyethyl) piperazine-1-ethanesulfonic acid solution) and 0.1% bovine serum albumin (pH 7.4). The cells were seeded in black 384-well plates (Corning) at a density of 10′000 cells/20 μl assay buffer until the addition of compounds.
# Test antagonist compounds were serially diluted in dimethyl sulfoxide (DMSO) and spotted in 384-well plates. The compounds were then diluted in BSS buffer supplemented with an EC80 concentration of MDL29,951 (3-(2-Carboxy-4,6-dichloroindol-3-yl)propionic acid) (GPR17 agonist) plus 3-Isobutyl-1-methylxanthine (IBMX) (0.5 mM final concentration) and added to the cells at room temperature. Forskolin (15 μM final concentration) was added 5 minutes after the test compounds and the cells were incubated at room temperature for 30 minutes. The assay was stopped by adding cAMP detection mix (containing detergents for cell lysis) for 90 minutes at room temperature.
# Cellular cAMP was measured using a Paradigm reader (Molecular Devices). The raw data was used to calculate the FRET signal based on the assay's P-factor as per cAMP kit instructions. The data was normalized to the maximal activity of a reference antagonist and dose response curves were fitted to the percent activity of the test compounds using a sigmoidal dose response model (Genedata Screener).
# Results in the hGPR17 cAMP assay are provided for compounds of formula I in Table 1
# Chain of human GPR17 short isoform (Q13304 29-367): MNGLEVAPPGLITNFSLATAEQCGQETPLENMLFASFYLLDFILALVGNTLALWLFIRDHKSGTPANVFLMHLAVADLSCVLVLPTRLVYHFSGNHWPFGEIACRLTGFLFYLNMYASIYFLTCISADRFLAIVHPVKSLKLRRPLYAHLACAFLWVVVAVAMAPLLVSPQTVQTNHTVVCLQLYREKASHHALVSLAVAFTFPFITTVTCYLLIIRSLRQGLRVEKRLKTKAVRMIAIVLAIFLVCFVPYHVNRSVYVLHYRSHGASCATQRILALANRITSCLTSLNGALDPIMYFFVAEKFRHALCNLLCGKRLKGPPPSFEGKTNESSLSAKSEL
row,Structure (SMILES),IC50 [nM]
1,"O=c1[nH]cc(S(=O)(=O)Nc2cc(F)c(OC(F)F)nc2OC(F)F)c2ccc(Cl)cc12 [Example 27, N-[2,6-bis(difluoromethoxy)-5-fluoro-3-pyridyl]-7-chloro-1-keto-2H-isoquinoline-4-sulfonamide]",32
2,"COc1nc(OCC(F)F)c(F)cc1NS(=O)(=O)c1cccc2nc(C(F)F)ccc12 [Example 35, N-[6-(2,2-difluoroethoxy)-5-fluoro-2-methoxy-3-pyridyl]-2-(difluoromethyl)quinoline-5-sulfonamide]",214
3,"COc1ncc(S(=O)(=O)Nc2cc(F)c(CC#N)cc2F)c2ccc(Cl)cc12 [Example 49, 7-chloro-N-[4-(cyanomethyl)-2,5-difluoro-phenyl]-1-methoxy-isoquinoline-4-sulfonamide]",905
4,"COc1nc(OC(F)F)c(F)cc1NS(=O)(=O)c1ccnc2cc(Cl)ccc12 [Example 48, 7-chloro-N-[6-(difluoromethoxy)-5-fluoro-2-methoxy-3-pyridyl]quinoline-4-sulfonamide]",154
5,"COc1nc(OCC(F)F)c(F)cc1NS(=O)(=O)c1cnc(N(C)C)c2cc(Cl)ccc12 [Example 41, 7-chloro-N-[6-(2,2-difluoroethoxy)-5-fluoro-2-methoxy-3-pyridyl]-1-(dimethylamino)isoquinoline-4-sulfonamide]",61
6,"COc1nc(OCC(F)F)c(F)cc1NS(=O)(=O)c1cncc2c(C#N)c(Cl)ccc12 [Example 46, 7-chloro-8-cyano-N-[6-(2,2-difluoroethoxy)-5-fluoro-2-methoxy-3-pyridyl]isoquinoline-4-sulfonamide]",253
7,"COc1nc(OCC(F)F)c(F)cc1NS(=O)(=O)c1cccc2ccc(Cl)cc12 [Example 19, 7-chloro-N-[6-(2,2-difluoroethoxy)-5-fluoro-2-methoxy-3-pyridyl]naphthalene-1-sulfonamide]",89
8,"COc1nc(OCC(F)F)c(F)cc1NS(=O)(=O)c1cccc2ccccc12 [Example 2, N-[6-(2,2-difluoroethoxy)-5-fluoro-2-methoxy-3-pyridyl]naphthalene-1-sulfonamide]",85
9,"CN(C)c1ccc2c(S(=O)(=O)Nc3cc(F)c(CC#N)cc3F)cccc2n1 [Example 32, N-[4-(cyanomethyl)-2,5-difluoro-phenyl]-2-(dimethylamino)quinoline-5-sulfonamide]",238
10,COc1nc(OCC(F)F)c(F)cc1NS(=O)(=O)c1c[nH]c(=O)c2cc(Cl)ccc12 [Example 26],5
11,"COc1nc(OCC(F)F)c(F)cc1NS(=O)(=O)c1cccc2nc(C)ccc12 [Example 33, N-[6-(2,2-difluoroethoxy)-5-fluoro-2-methoxy-3-pyridyl]-2-methyl-quinoline-5-sulfonamide]",11
12,"N#CCc1cc(F)c(NS(=O)(=O)c2c[nH]c(=O)c3cc(Cl)ccc23)cc1F [Example 21, 7-chloro-N-[4-(cyanomethyl)-2,5-difluoro-phenyl]-1-keto-2H-isoquinoline-4-sulfonamide]",174
13,"COc1nc(OCC(F)F)c(F)cc1NS(=O)(=O)c1cc(=O)n(C)c2cc(Cl)ccc12 [Example 37, 7-chloro-N-[6-(2,2-difluoroethoxy)-5-fluoro-2-methoxy-3-pyridyl]-2-keto-1-methyl-quinoline-4-sulfonamide]",246
14,"CNc1cc(S(=O)(=O)Nc2cc(F)c(OCC(F)F)nc2OC)c2ccc(Cl)cc2n1 [Example 45, 7-chloro-N-[6-(2,2-difluoroethoxy)-5-fluoro-2-methoxy-3-pyridyl]-2-(methylamino)quinoline-4-sulfonamide]",72
15,"N#CCc1cc(F)c(NS(=O)(=O)c2c[nH]c(=O)c3ccccc23)cc1F [Example 52, N-(4-(cyanomethyl)-2,5-difluorophenyl)-1-oxo-1,2-dihydroisoquinoline-4-sulfonamide]",594
16,"N#CCc1cc(F)c(NS(=O)(=O)c2cncc3cc(Cl)ccc23)cc1F [Example 12, 7-chloro-N-[4-(cyanomethyl)-2,5-difluoro-phenyl]isoquinoline-4-sulfonamide]",260
17,"N#CCc1cc(F)c(NS(=O)(=O)c2cnc(O)c3c(Cl)cccc23)cc1F [Example 20, 8-chloro-N-[4-(cyanomethyl)-2,5-difluoro-phenyl]-1-hydroxy-isoquinoline-4-sulfonamide]",327
18,"COc1nc(CC#N)c(F)cc1NS(=O)(=O)c1cccc2nc(Cl)ccc12 [Example 5, 2-chloro-N-[6-(cyanomethyl)-5-fluoro-2-methoxy-3-pyridyl]quinoline-5-sulfonamide]",19
19,"COc1nc(OC(F)F)c(F)cc1NS(=O)(=O)c1c[nH]c(=O)c2cc(Cl)ccc12 [Example 23, 7-chloro-N-[6-(difluoromethoxy)-5-fluoro-2-methoxy-3-pyridyl]-1-keto-2H-isoquinoline-4-sulfonamide]",19
20,"COc1nc(OCC(F)F)c(F)cc1NS(=O)(=O)c1c[nH]c(=O)c2nc(Cl)ccc12 [Example 29, 2-chloro-N-[6-(2,2-difluoroethoxy)-5-fluoro-2-methoxy-3-pyridyl]-8-keto-7H-1,7-naphthyridine-5-sulfonamide]",30
21,"COc1nc(NS(=O)(=O)c2cccc3nc(Cl)ccc23)nc(OC)c1CC(F)F [Example 8, 2-chloro-N-[5-(2,2-difluoroethyl)-4,6-dimethoxy-pyrimidin-2-yl]quinoline-5-sulfonamide]",174
22,"COc1nc(OC(F)F)c(F)cc1NS(=O)(=O)c1cncc2cc(Cl)ccc12 [Example 13, 7-chloro-N-[6-(difluoromethoxy)-5-fluoro-2-methoxy-3-pyridyl]isoquinoline-4-sulfonamide]",92
23,"COc1nc(OCC(F)F)c(F)cc1NS(=O)(=O)c1cccc2c1CCC(C)O2 (centres unmarked) [Example 16, N-[6-(2,2-difluoroethoxy)-5-fluoro-2-methoxy-3-pyridyl]-2-methyl-chromane-5-sulfonamide]",31
24,"COc1nc(NS(=O)(=O)c2cccc3nc(Cl)ccc23)nc(OC)c1OC(F)F [Example 51, 2-chloro-N-[5-(difluoromethoxy)-4,6-dimethoxy-pyrimidin-2-yl]quinoline-5-sulfonamide]",448
25,"COc1nc(C2COC2)c(F)cc1NS(=O)(=O)c1cccc2nc(Cl)ccc12 [Example 7, 2-chloro-N-[5-fluoro-2-methoxy-6-(oxetan-3-yl)-3-pyridyl]quinoline-5-sulfonamide]",431
26,"COc1nc(OCC(F)F)c(F)cc1NS(=O)(=O)c1cc(=O)[nH]c2cc(Cl)ccc12 [Example 30, 7-chloro-N-[6-(2,2-difluoroethoxy)-5-fluoro-2-methoxy-3-pyridyl]-2-keto-1H-quinoline-4-sulfonamide]",35
